Data as given in ChEMBL document CHEMBL3137667, “[Drug-induced liver injury; fourteenth updated edition of the bibliographic database of liver injuries and related drugs]” (Gastroenterol Clin Biol, 2004).

Legend:
[1] = Highest frequency of moderate liver toxicity observed during clinical trials, expressed as a percentage. [column '% BIOL' in source]; conditions: human
[2] = Highest frequency of acute liver toxicity observed during clinical trials, expressed as a percentage. [column '% AIGUE' in source]; conditions: human
[3] = human, serum
[4] = human, serum; remark: listed apart in the source
[5] = human
[6] = human; remark: listed apart in the source
[7] = human; remark: listed apart in the source
[8] = human, serum, 4383 h
[9] = human; remark: listed apart in the source
[10] = human; remark: listed apart in the source
[11] = human; remark: listed apart in the source
[12] = human; remark: listed apart in the source
[13] = human; remark: listed apart in the source
[14] = human; remark: listed apart in the source
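For Hepatotoxicity (association with vascular disease) in this document: count of indexed literature references reporting vascular liver injury in humans, e.g. peliosis hepatitis, hepatic veno-occlusive disease or Budd-Chiari syndrome.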
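For Hepatotoxicity (benign tumour) in this document: value is a count of indexed literature references citing a benign tumour confirmed by histopathology.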
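For Hepatotoxicity (choleostasis) in this document: human cholestatic liver injury, shown by histopathology or by peak ALT or AST elevation over alkaline phosphatase ratio below 2, value counts indexed literature reports.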
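For Hepatotoxicity (chronic liver disease) in this document: chronic liver injury confirmed by histopathology or persistently raised serum aminotransferase activity beyond 6 months, value given as the count of indexed literature references.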
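For Hepatotoxicity (cirrhosis) in this document: value is a count of indexed literature references reporting cirrhosis confirmed by histopathology.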
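For Hepatotoxicity (cytolytic) in this document: human cytolytic liver injury, shown by histopathology or by a ratio above 5 of peak ALT or AST elevation to alkaline phosphatase elevation, value counts indexed references.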
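For Hepatotoxicity (granulomatous hepatitis) in this document: value is a count of indexed literature references reporting granulomatous liver disease confirmed by histopathology.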
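For Hepatotoxicity (malignant tumour) in this document: malignant tumour confirmed by histopathology, value gives the count of indexed literature references reporting it.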
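For Hepatotoxicity (severe hepatitis) in this document: human clinical data: severe hepatitis, meaning potentially life-threatening liver failure or clinically observed cases, the value counts how many indexed literature references report it.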
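For Hepatotoxicity (steatosis) in this document: steatosis confirmed by histopathology, value is the count of indexed references.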

SMILES | Hepatotoxicity (moderate) [1] [%] | Hepatotoxicity (acute) [2] [%] | Hepatotoxicity (moderate) [3] | Hepatotoxicity (acute) [4] | Hepatotoxicity (cytolytic) [5] | Hepatotoxicity (choleostasis) [6] | Hepatotoxicity (severe hepatitis) [7] | Hepatotoxicity (chronic liver disease) [8] | Hepatotoxicity (cirrhosis) [9] | Hepatotoxicity (granulomatous hepatitis) [10] | Hepatotoxicity (association with vascular disease) [11] | Hepatotoxicity (steatosis) [12] | Hepatotoxicity (malignant tumour) [13] | Hepatotoxicity (benign tumour) [14]
CC(=O)c1ccc2c(c1)N(CCCN1CCC(CCO)CC1)c1ccccc1S2 [PIPERACETAZINE] | 39 | 0 | 1 | 0 | 0 | 0 | 0 | 0 | 0 | 0 | 0 | 0 | 0 | 0
CCCCCOC(=O)Nc1nc(=O)n([C@@H]2O[C@H](C)[C@@H](O)[C@H]2O)cc1F [CAPECITABINE] | 61.8 | 0 | 1 | 0 | 0 | 0 | 0 | 0 | 0 | 0 | 0 | 0 | 0 | 0
CC(C)[C@H](N)C(=O)OCC(CO)OCn1cnc2c(=O)nc(N)[nH]c21 (some centres undefined) [VALGANCICLOVIR] | 3 | 0 | 1 | 0 | 0 | 0 | 0 | 0 | 0 | 0 | 0 | 0 | 0 | 0
NCCCNc1ccc2c3c(nn2CCNCCO)-c2c(O)ccc(O)c2C(=O)c13 [PIROXANTRONE] | 9.1 | 0 | 4 | 0 | 0 | 0 | 0 | 0 | 0 | 0 | 0 | 0 | 0 | 0
COC(=O)C1=C(C#N)NC(C)=C(C(=O)OC(C)C)C1c1cccc([N+](=O)[O-])c1 (centres undefined) [NILVADIPINE] | 6.3 | 0 | 3 | 0 | 0 | 0 | 0 | 0 | 0 | 0 | 0 | 0 | 0 | 0
CN1CC[C@@H]2Nc3ccccc3[C@@H]2C1.Cl.Cl | 0 | 0 | 0 | 1 | 0 | 1 | 0 | 0 | 0 | 0 | 0 | 0 | 0 | 0
